According to patent US20120141384A1, “ANTIBACTERIAL CONJUGATED BORONIC ACIDS AND PHARMACEUTICAL COMPOSITIONS THEREOF” (priority 2008, published 2012):

Experiments:
[1] = tested on: Propionbacterium acnes ATCC 11827; assay: Antimicrobial efficacy (challenge) test, plate count, anaerobic incubation; format: cell-based; details: for No. of Surviving Microorganisms CFU/g: 25° C. anaerobic, initial contamination 4.1 × 10^5 CFU/g; for antimicrobial effect in words: following one day of exposure
Method: (§1) The purpose of this study was to assess the antimicrobial efficacy of 2-Formylphenyl boronic acid (FPB) aqueous solutions, in different concentrations of 10 mM, 20 mM and 40 mM. 2-FBP was obtained from Sigma Aldrich. Test Procedure: The test consisted of challenging the test solutions with specified microorganisms, storing the inoculated preparations at a prescribed temperature, removing the inoculated samples at specified intervals of time and counting the number of viable organisms in the withdrawn samples using a plate count procedure. The technical details were as follows: • The test was conducted in 20 g samples. • Each sample was separately inoculated by one of the test organisms. • The inoculated containers were incubated at 25° C. together with an uninoculated sample. • The inoculated container with P. acnes was incubated under anaerobic conditions at the same temperature. • The culture media for P. acnes was Brain Heart Infusion Agar instead of Tryptic Soy Agar. Formulations were challenged by introducing the following microorganisms: Propionbacterium acnes ATCC 11827 Counting of microorganisms in the inoculated samples was performed 1, 2 and 7 days following inoculation. The number of colony-forming units (cfu/g) determined at each incubation time point was compared to the number of cfu/g measured in non-inoculated control samples of FPB solutions. Antimicrobial effectiveness results, expressed as colony forming units of surviving microorganisms in the FPB solutions (cfu/g), are detailed in Tables 1-3.

[2] = Solubility and compatibility of FPB in the carrier; format: physicochemical; details: for solubility in the carrier: 20 mM and 40 mM
Text: The active agent FPB is soluble in the carrier.

[3] = tested on: Propionbacterium acnes ATCC 11827; assay: Antimicrobial efficacy (challenge) test, plate count, anaerobic incubation; format: cell-based; details: 30 mM FPB aqueous solution, 25° C. anaerobic, initial contamination 4.1 × 10^5 CFU/g
[4] = tested on: Escherichia coli (ATCC No. 8739); assay: Antimicrobial efficacy (challenge) test, plate count; format: cell-based; details: for No. of Surviving Microorganisms CFU/g: 25° C., initial contamination 2.8 × 10^5 CFU/g; for antimicrobial effect in words: following one day of exposure
Method: as §1, with “2-FBP” for “The purpose of this study was to assess the antimicrobial efficacy of 2-Formylphenyl boronic acid (FPB) aqueous solutions, in different concentrations of 10 mM, 20 mM and 40 mM. 2-FBP”, “Escherichia coli (ATCC No. 8739)” for “Propionbacterium acnes ATCC 11827”

[5] = tested on: Pseudomonas aeruginosa (ATCC No. 9027); assay: as above; format: cell-based; details: for No. of Surviving Microorganisms CFU/g: 25° C., initial contamination 4.3 × 10^6 CFU/g; for antimicrobial effect in words: following one day of exposure
Method: as §1, with “2-FBP” for “The purpose of this study was to assess the antimicrobial efficacy of 2-Formylphenyl boronic acid (FPB) aqueous solutions, in different concentrations of 10 mM, 20 mM and 40 mM. 2-FBP”, “Pseudomonas aeruginosa (ATCC No. 9027)” for “Propionbacterium acnes ATCC 11827”

[6] = tested on: Staphylococcus aureus (ATCC No. 6538); assay: as above; format: cell-based; details: for No. of Surviving Microorganisms CFU/g: 25° C., initial contamination 5.2 × 10^5 CFU/g; for antimicrobial effect in words: following one day of exposure
Method: as §1, with “Staphylococcus aureus (ATCC No. 6538)” for “Propionbacterium acnes ATCC 11827”

[7] = Stability of 2-FBA under formulation conditions, amount by chromatography; format: physicochemical
Method: 2-Formylphenyl Boronic Acid (2-FBA) was exposed to various formulation conditions, in order to assess its optimized formulation stability properties. The amount of 2-FBA was assessed prior to the experiment and following the exposure to the different conditions by chromatography. The conditions are detailed in the following Table.

[8] = tested on: Staphylococcus aureus (ATCC No. 6538); assay: Antimicrobial efficacy (challenge) test, plate count; format: cell-based; details: 30 mM FPB aqueous solution, 25° C., initial contamination 5.2 × 10^5 CFU/g
[9] = 10 mM FPB aqueous solution, 1 week
[10] = 10 mM FPB aqueous solution, 1 days
[11] = 10 mM FPB aqueous solution, 2 days
[12] = 20 mM FPB aqueous solution, 1 week
[13] = 20 mM FPB aqueous solution, 1 days
[14] = 20 mM FPB aqueous solution, 2 days
[15] = solutions, concentrations of 10 mM, 20 mM and 40 mM
[16] = Solution 1 (10 mM FPB), within two days of exposure

interference with foam formation ([2]; emulsion carrier (Example 2)): does not interfere
interference with the formation of an emulsion ([2]; emulsion carrier (Example 2)): does not interfere
solubility in the carrier ([2]; emulsion carrier (Example 2)): soluble
interference with foam formation ([2]; gel carrier (Example 3)): does not interfere
solubility in the carrier ([2]; gel carrier (Example 3)): soluble
stability in words ([7]; UV light): relatively stable
stability in words ([7]; heat): relatively stable
stability in words ([7]; in the presence of H2O2): underwent degradation
stability in words ([7]; in the presence of HCl (0.1 N)): underwent degradation
stability in words ([7]; in the presence of NaOH (0.1 N)): relatively stable
SMILES: O=Cc1ccccc1B(O)O [FPB, 2-Formylphenyl boronic acid]
No. of Surviving Microorganisms CFU/g [1, 9]: <10 CFU/g
No. of Surviving Microorganisms CFU/g [1, 10]: <10 CFU/g
No. of Surviving Microorganisms CFU/g [1, 11]: <10 CFU/g
No. of Surviving Microorganisms CFU/g [1, 12]: <10 CFU/g
No. of Surviving Microorganisms CFU/g [1, 13]: <10 CFU/g
No. of Surviving Microorganisms CFU/g [1, 14]: <10 CFU/g
antimicrobial effect in words ([1]; Solution 1 (10 mM FPB)): completely destroyed
antimicrobial effect in words ([1]; Solution 2 (20 mM FBA)): completely eradicated
antimicrobial effect in words ([1]; Solution 3 (40 mM FBA)): completely eradicated
effectiveness (conclusion) [1, 15]: effective
No. of Surviving Microorganisms CFU/g ([3]; 1 week): <10 CFU/g
No. of Surviving Microorganisms CFU/g ([3]; 1 days): <10 CFU/g
No. of Surviving Microorganisms CFU/g ([3]; 2 days): <10 CFU/g
No. of Surviving Microorganisms CFU/g [4, 9]: <10 CFU/g
No. of Surviving Microorganisms CFU/g [4, 10]: 6.4 × 10^4 CFU/g
No. of Surviving Microorganisms CFU/g [4, 11]: <10 CFU/g
No. of Surviving Microorganisms CFU/g [4, 12]: <10 CFU/g
No. of Surviving Microorganisms CFU/g [4, 13]: 7.6 × 10^3 CFU/g
No. of Surviving Microorganisms CFU/g [4, 14]: <10 CFU/g
No. of Surviving Microorganisms CFU/g ([4]; 30 mM FPB aqueous solution, 1 week): <10 CFU/g
No. of Surviving Microorganisms CFU/g ([4]; 30 mM FPB aqueous solution, 1 days): <10 CFU/g
No. of Surviving Microorganisms CFU/g ([4]; 30 mM FPB aqueous solution, 2 days): <10 CFU/g
log reduction of the count from the initial load [4, 16]: 2.0 log
antimicrobial effect in words ([4]; Solution 2 (20 mM FBA)): completely eradicated
antimicrobial effect in words ([4]; Solution 3 (40 mM FBA)): completely eradicated
effectiveness (conclusion) [4, 15]: effective
No. of Surviving Microorganisms CFU/g [5, 9]: <10 CFU/g
No. of Surviving Microorganisms CFU/g [5, 10]: 4.3 × 10^4 CFU/g
No. of Surviving Microorganisms CFU/g [5, 11]: 5.0 × 10^1 CFU/g
No. of Surviving Microorganisms CFU/g [5, 12]: <10 CFU/g
No. of Surviving Microorganisms CFU/g [5, 13]: <10 CFU/g
No. of Surviving Microorganisms CFU/g [5, 14]: <10 CFU/g
log reduction of the count from the initial load [5, 16]: 2.0 log
antimicrobial effect in words ([5]; Solution 2 (20 mM FBA)): completely eradicated
antimicrobial effect in words ([5]; Solution 3 (40 mM FBA)): completely eradicated
effectiveness (conclusion) [5, 15]: effective
No. of Surviving Microorganisms CFU/g [6, 9]: <10 CFU/g
No. of Surviving Microorganisms CFU/g [6, 10]: 4.5 × 10^4 CFU/g
No. of Surviving Microorganisms CFU/g [6, 11]: 5.4 × 10^2 CFU/g
No. of Surviving Microorganisms CFU/g [6, 12]: <10 CFU/g
No. of Surviving Microorganisms CFU/g [6, 13]: <10 CFU/g
No. of Surviving Microorganisms CFU/g [6, 14]: <10 CFU/g
log reduction of the count from the initial load [6, 16]: 2.0 log
antimicrobial effect in words ([6]; Solution 2 (20 mM FBA)): completely eradicated
antimicrobial effect in words ([6]; Solution 3 (40 mM FBA)): completely eradicated
effectiveness (conclusion) [6, 15]: effective
No. of Surviving Microorganisms CFU/g ([8]; 1 week): <10 CFU/g
No. of Surviving Microorganisms CFU/g ([8]; 1 days): <10 CFU/g
No. of Surviving Microorganisms CFU/g ([8]; 2 days): <10 CFU/g
